The values below come from US20180346920A1, “Mutations Conferring Acetyl-Coa Carboxylase (ACC) Inhibiting Herbicide Tolerance in Sorghum” (Chromatin, Inc., priority 2017, published 2018).

In assay [1] the test system is sorghum (Inbred BTX430) calli. As to the kind of experiment: Kill curve experiment on sorghum calli. The assay is classed as cell-based, Sorghum bicolor. The note with it: 0.2 uM concentration; three week old BTX430 calli. The method, then:
Callus production from the isolation of immature embryos (IEs) was accomplished by removing immature seeds from greenhouse grown sorghum (Inbred BTX430) panicles approximately 14 days after anthesis and surface sterilized in ethanol followed by a bleach solution and then washed in sterilized water. Immature embryos were isolated from seeds and transferred to medium with 20 IEs per plate. Cultures were grown for two weeks at (28° C.). All explants which produced somatic embryogenic calli were transferred to growth medium and cultured for an additional 4-6 days at 28° C. Explants were transferred to fresh media every three weeks until the entire callus turned into compact and friable green callus. Three weeks old freshly subcultured calli were used for the experiment
The herbicide active ingredient molecule of ACC herbicide Assure II (Quizalofop-p-ethyl) was used for screening and selection process. For identifying the optimum concentration for screening, a kill curve experiment with concentrations ranging from 0.05 to 1.0 μM of a.i. molecules were tested. Three week old calli were cut into small pieces of 4-5 mm dia and 25 pieces were tested in three replications for each concentration. Concentrations used were: 0.05, 0.1, 0.2, 0.3, 0.4, 0.5 and 1 μM Quizalofop p-ethyl. […]

The test system of assay [2] is FOP herbicide resistant calli (FP-1 to FP-19). Kind of assay: Resistant calli tested on higher herbicide concentrations in culture medium. The assay is classed as cell-based, Sorghum bicolor. On the procedure:
The herbicide active ingredient molecule of ACC herbicide Assure II (Quizalofop-p-ethyl) was used for screening and selection process. For identifying the optimum concentration for screening, a kill curve experiment with concentrations ranging from 0.05 to 1.0 μM of a.i. molecules were tested. Three week old calli were cut into small pieces of 4-5 mm dia and 25 pieces were tested in three replications for each concentration. Concentrations used were: 0.05, 0.1, 0.2, 0.3, 0.4, 0.5 and 1 μM Quizalofop p-ethyl. As 50% of calli were killed at 0.2 uM concentration, the following selection criteria was followed for entire screening process. Selection process was started with 0.05 um and doubled the concentration for every 3 weeks and the calli surviving on 1.0 uM was considered as resistant calli.
For the chemical mutagenesis, two chemical mutagens Ethyl methanesulfonate (EMS) (0.25 and 0.5%) and Sodium azide (0.5 and 1.0 uM) were used. These mutagens at specified concentration were directly added into the culture media. The calli pieces were first cultured on the media containing the mutagens for 6 and 12 hrs and then transferred to the above mentioned selection procedure. A total of 16 experiments were conducted with varying amount of calli pieces. After 21 to 24 weeks of selection, the surviving calli were considered as herbicide resistant calli. […]

SMILES strings stand for the structures.

For the compound `CCOC(=O)[C@@H](C)Oc1ccc(Oc2cnc3cc(Cl)ccc3n2)cc1` [Quizalofop-p-ethyl], in assay [1], the calli killed is reported as 50%. Besides, the “survival of FOP resistant calli” value in assay [2] (100 μM, FP-7, FP-8, FP-9, FP-10, FP-13, FP-15) is recorded as “surviving”. Further, the “growth of FOP herbicide resistant calli on tissue culture medium” value in assay [2] (FP-13, 1, 1.5, 2, 5, 10 μM) is “growing”.
